What was measured:
[1] = Oral bioavailability in Sprague-Dawley rat at 10 mg/kg; assay type: ADME, organism-based; conditions: in vivo
NCI-H1975 [2] = test: Induction of apoptosis in human NCI-H1975 cells assessed as late apoptotic cells at 1 nM incubated for 48 hrs by allo-Phycocyanin-Annexin V staining based flow cytometry (reference value: 4.08 %); assay type: functional
NCI-H2228 = test: Antiproliferative activity against human NCI-H2228 cells expressing EML4-ALK fusion incubated for 48 hrs by CCK8 assay; conditions: nci-h2228
NCI-H1975 [3] = test: Antitumor activity against human NCI-H1975 cells xenografted in BALB/c-nu mouse at 30 mg/kg, po administered daily orally for 21 days relative to control; assay type: functional; conditions: Mus musculus, NCI-H1975, po, 504 h, time 21 day, read-out: TGI
[4] = Tmax in Sprague-Dawley rat at 1 mg/kg, iv; assay type: ADME, organism-based; conditions: in vivo
NCI-H1975 [5] = test: Induction of cell cycle arrest in human NCI-H1975 cells assessed as accumulation at G2/M phase at 1 nM incubated for 24 hrs by PI/RNase staining based flow cytometry (reference value: 32.71 %); assay type: functional
NCI-H1975 [6] = test: Antitumor activity against human NCI-H1975 cells xenografted in BALB/c-nu mouse at 15 mg/kg, po administered daily orally for 21 days relative to control; assay type: functional; conditions: Mus musculus, NCI-H1975, po, 504 h, time 21 day, read-out: TGI
NCI-H1975 [7] = test: Induction of cell cycle arrest in human NCI-H1975 cells assessed as accumulation at S phase at 10 nM incubated for 24 hrs by PI/RNase staining based flow cytometry (reference value: 17.1 %); assay type: functional
NCI-H1975 [8] = test: Induction of cell cycle arrest in human NCI-H1975 cells assessed as accumulation at G0/G1 phase at 10 nM incubated for 24 hrs by PI/RNase staining based flow cytometry (reference value: 50.19 %); assay type: functional
NCI-H1975 [9] = test: Induction of cell cycle arrest in human NCI-H1975 cells assessed as accumulation at S phase at 1 nM incubated for 24 hrs by PI/RNase staining based flow cytometry (reference value: 17.1 %); assay type: functional
[10] = Antiproliferative activity against human THLE-3 cells incubated for 48 hrs by CCK8 assay; assay type: toxicity, cell-based; conditions: thle-3, 48 h
NCI-H1975 [11] = test: Induction of apoptosis in human NCI-H1975 cells assessed as viable cells at 10 nM incubated for 48 hrs by allo-Phycocyanin-Annexin V staining based flow cytometry (reference value: 93.6 %); assay type: functional; conditions: read-out: Activity
HK-2 = test: Antiproliferative activity against human HK-2 cells incubated for 48 hrs by CCK8 assay; assay type: toxicity, cell-based; conditions: hk-2, 48 h
NCI-H1975 [12] = test: Induction of apoptosis in human NCI-H1975 cells assessed as viable cells at 5 nM incubated for 48 hrs by allo-Phycocyanin-Annexin V staining based flow cytometry (reference value: 93.6 %); assay type: functional; conditions: Homo sapiens, NCI-H1975, read-out: Activity
NCI-H1975 [13] = test: Induction of apoptosis in human NCI-H1975 cells assessed as late apoptotic cells at 5 nM incubated for 48 hrs by allo-Phycocyanin-Annexin V staining based flow cytometry (reference value: 4.08 %); assay type: functional
NCI-H1975 [14] = test: Induction of apoptosis in human NCI-H1975 cells assessed as viable cells at 1 nM incubated for 48 hrs by allo-Phycocyanin-Annexin V staining based flow cytometry (reference value: 93.6 %); assay type: functional; conditions: read-out: Activity
[15] = Antiproliferative activity against human NCI-H1975 cells expressing EGFR mutation incubated for 48 hrs by CCK8 assay; conditions: nci-h1975
NCI-H1975 [16] = test: Induction of apoptosis in human NCI-H1975 cells assessed as necrotic cells at 5 nM incubated for 48 hrs by allo-Phycocyanin-Annexin V staining based flow cytometry (reference value: 0.031 %); assay type: functional
NCI-H1975 [17] = test: Induction of cell cycle arrest in human NCI-H1975 cells assessed as accumulation at G2/M phase at 10 nM incubated for 24 hrs by PI/RNase staining based flow cytometry (reference value: 32.71 %); assay type: functional
NCI-H1975 [18] = test: Induction of apoptosis in human NCI-H1975 cells assessed as early apoptotic cells at 5 nM incubated for 48 hrs by allo-Phycocyanin-Annexin V staining based flow cytometry (reference value: 2.27 %); assay type: functional
[19] = Apparent oral clearance in Sprague-Dawley rat at 1 mg/kg, iv; assay type: ADME, organism-based; conditions: in vivo
[20] = Antiproliferative activity against human HLF1 cells incubated for 48 hrs by CCK8 assay; assay type: toxicity, cell-based; conditions: hlf1, 48 h
NCI-H1975 [21] = test: Induction of apoptosis in human NCI-H1975 cells assessed as necrotic cells at 1 nM incubated for 48 hrs by allo-Phycocyanin-Annexin V staining based flow cytometry (reference value: 0.031 %); assay type: functional
[22] = Half life in Sprague-Dawley rat at 10 mg/kg, po; assay type: ADME, organism-based; conditions: in vivo
[23] = Tmax in Sprague-Dawley rat at 10 mg/kg, po; assay type: ADME, organism-based; conditions: in vivo
NCI-H1975 [24] = test: Induction of cell cycle arrest in human NCI-H1975 cells assessed as accumulation at G0/G1 phase at 1 nM incubated for 24 hrs by PI/RNase staining based flow cytometry (reference value: 50.19 %); assay type: functional
NCI-H1975 [25] = test: Antitumor activity against human NCI-H1975 cells xenografted in BALB/c-nu mouse at 5 mg/kg, po administered daily orally for 21 days relative to control; assay type: functional; conditions: Mus musculus, NCI-H1975, po, 504 h, time 21 day, read-out: TGI
BaF3 = test: Antiproliferative activity against mouse BaF3 cells expressing EML4-ALK fusion incubated for 48 hrs by CCK8 assay; conditions: baf3
[26] = Apparent volume of distribution during terminal phase in Sprague-Dawley rat at 1 mg/kg, iv; assay type: ADME, organism-based; conditions: in vivo
[27] = MRT (0 to t) in Sprague-Dawley rat at 10 mg/kg, po; assay type: ADME, organism-based; conditions: in vivo
NCI-H1975 [28] = test: Induction of apoptosis in human NCI-H1975 cells assessed as early apoptotic cells at 10 nM incubated for 48 hrs by allo-Phycocyanin-Annexin V staining based flow cytometry (reference value: 2.27 %); assay type: functional
NCI-H1975 [29] = test: Induction of cell cycle arrest in human NCI-H1975 cells assessed as accumulation at S phase at 5 nM incubated for 24 hrs by PI/RNase staining based flow cytometry (reference value: 17.1 %); assay type: functional
NCI-H1975 [30] = test: Induction of apoptosis in human NCI-H1975 cells assessed as necrotic cells at 10 nM incubated for 48 hrs by allo-Phycocyanin-Annexin V staining based flow cytometry (reference value: 0.031 %); assay type: functional
[31] = Half life in Sprague-Dawley rat at 1 mg/kg, iv; assay type: ADME, organism-based; conditions: in vivo
NCI-H1975 [32] = test: Induction of cell cycle arrest in human NCI-H1975 cells assessed as accumulation at G0/G1 phase at 5 nM incubated for 24 hrs by PI/RNase staining based flow cytometry (reference value: 50.19 %); assay type: functional
NCI-H1975 [33] = test: Induction of cell cycle arrest in human NCI-H1975 cells assessed as accumulation at G2/M phase at 5 nM incubated for 24 hrs by PI/RNase staining based flow cytometry (reference value: 32.71 %); assay type: functional
NCI-H1975 [34] = test: Induction of apoptosis in human NCI-H1975 cells assessed as late apoptotic cells at 10 nM incubated for 48 hrs by allo-Phycocyanin-Annexin V staining based flow cytometry (reference value: 4.08 %); assay type: functional
[35] = Cmax in Sprague-Dawley rat at 10 mg/kg, po; assay type: ADME, organism-based; conditions: in vivo
L02 = test: Antiproliferative activity against human L02 cells incubated for 48 hrs by CCK8 assay; assay type: toxicity, cell-based; conditions: l02, 48 h
NCI-H522 = test: Antiproliferative activity against human NCI-H522 cells expressing wild-type EGFR/ALK incubated for 48 hrs by CCK8 assay; conditions: nci-h522
NCI-H1975 [36] = test: Induction of apoptosis in human NCI-H1975 cells assessed as early apoptotic cells at 1 nM incubated for 48 hrs by allo-Phycocyanin-Annexin V staining based flow cytometry (reference value: 2.27 %); assay type: functional

bioavailability [1]: 44.1%
IC50 (NCI-H2228): 21.5 nM
Tmax [4]: 1.98 min
CL/F [19]: 63.7 mL/min/kg
half-life [22]: 4.65 h
Tmax [23]: 0.5 h
IC50 (BaF3): 2.4 nM
Vz/F [26]: 5.9 L/kg
MRT last [27]: 3.57 h
half-life [31]: 1.06 h
Cmax [35]: 169 ng/mL
IC50 (NCI-H522): 1960 nM
Compound: [2H]C([2H])([2H])C([2H])([2H])[S+]([O-])c1ccccc1Nc1nc(Nc2cc(NC(=O)C=C)c(N(C)CCN(C)C)cc2OC)ncc1Cl (single isomer, unassigned; (-))
Activity (NCI-H1975 [2]): 7.98%
inhibition in vivo at 30 mg/kg (NCI-H1975 [3]): 97.2%
Activity (NCI-H1975 [5]): 22.93%
inhibition in vivo at 15 mg/kg (NCI-H1975 [6]): 93.2%
Activity (NCI-H1975 [7]): 3.84%
Activity (NCI-H1975 [8]): 68.32%
Activity (NCI-H1975 [9]): 12.5%
Activity [10]: Non-toxic
viability at 0.01 µM (NCI-H1975 [11]): 46.8%
Activity (HK-2): Non-toxic
viability at 0.005 µM (NCI-H1975 [12]): 62.8%
Activity (NCI-H1975 [13]): 14.3%
viability at 0.001 µM (NCI-H1975 [14]): 75.4%
IC50 [15]: 1.08 nM
Activity (NCI-H1975 [16]): 0.16%
Activity (NCI-H1975 [17]): 28.2%
Activity (NCI-H1975 [18]): 22.8%
Activity [20]: Non-toxic
Activity (NCI-H1975 [21]): 0.071%
Activity (NCI-H1975 [24]): 64.57%
inhibition in vivo at 5 mg/kg (NCI-H1975 [25]): 80.3%
Activity (NCI-H1975 [28]): 32.5%
Activity (NCI-H1975 [29]): 3.78%
Activity (NCI-H1975 [30]): 0.22%
Activity (NCI-H1975 [32]): 67.31%
Activity (NCI-H1975 [33]): 28.91%
Activity (NCI-H1975 [34]): 20.5%
Activity (L02): Non-toxic
Activity (NCI-H1975 [36]): 16.6%
